Experimental data taken from patent US8318184B2, “MGLU2 agonists” (Eli Lilly and Company, priority 2009, dated 2012).

Key:
hPepT1 = molecular target: T1, hPepT1 (Homo sapiens, UniProt P46059); experiment: In Vitro PepT1 GlySar Inhibition Screen and IC50 Determination; assay type: cell-based; conditions: for inhibition at 5000 µM: 5 mM, pH 6.0, PepT1 transiently transfected HeLa cells, read-out: hPepT1 [3H]Gly-Sar uptake inhibition at 5 mM
T1 construct: expressed in transfected cells; host or cells: HeLa cells (ATCC), transient transfection with FuGene6
T1 sequence (P46059 1-708): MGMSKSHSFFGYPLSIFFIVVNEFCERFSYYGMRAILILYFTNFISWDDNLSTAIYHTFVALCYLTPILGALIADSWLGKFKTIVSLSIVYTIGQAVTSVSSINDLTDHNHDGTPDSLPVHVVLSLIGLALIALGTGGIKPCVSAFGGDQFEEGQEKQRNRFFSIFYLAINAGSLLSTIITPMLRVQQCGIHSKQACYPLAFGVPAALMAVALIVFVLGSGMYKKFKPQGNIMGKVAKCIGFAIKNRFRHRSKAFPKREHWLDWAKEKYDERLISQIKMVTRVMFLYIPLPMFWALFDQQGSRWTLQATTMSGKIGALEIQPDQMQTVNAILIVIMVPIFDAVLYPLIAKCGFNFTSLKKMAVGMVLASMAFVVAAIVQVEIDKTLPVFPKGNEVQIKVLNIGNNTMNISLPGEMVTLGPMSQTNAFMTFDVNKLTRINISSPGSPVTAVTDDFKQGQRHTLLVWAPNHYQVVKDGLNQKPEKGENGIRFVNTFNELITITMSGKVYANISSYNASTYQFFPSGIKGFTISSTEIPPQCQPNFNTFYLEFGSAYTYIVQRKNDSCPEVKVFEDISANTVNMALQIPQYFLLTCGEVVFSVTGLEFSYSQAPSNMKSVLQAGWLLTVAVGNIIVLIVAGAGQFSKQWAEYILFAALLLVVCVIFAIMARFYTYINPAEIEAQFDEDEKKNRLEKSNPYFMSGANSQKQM
Experimental: PepT1 assays are established to examine the ability of the amino acid prodrug compounds to interact with the intestinal absorption transporter PepT1.
HeLa cells, […], (American Type Culture Collection) are grown in Hyclone Medium (Invitrogen, Cat# SH30243) containing 10% fetal bovine serum (FBS), 0.1 mM non essential amino acids (NEAA), and 100 units/mL penicillin with 100 μg/mL streptomycin at 37° C. in a 5% CO2 humidified atmosphere. The cell line is used for up to 40 passages and then discarded. Frozen cells in 1 ml vials are thawed in water bath for 1-2 minutes and added to 5 mL of cell medium at 37° C. Each of the T-flasks is provided with 8.5 mL of the fresh medium and 1.5 mL of the cell stock. Cells are passaged twice during a week. This is achieved by rinsing the flasks with 10 mL of phosphate buffered saline-ethylene diaminetetra acetic acid (PBS-EDTA), adding 2 mL of trypsin for 2-5 minutes, to detach the cells, and adding 8 mL of fresh medium to inhibit further activity of trypsin. Each new flask receives a combination of 8.5 mL of fresh medium and 1.5 mL of cell stock, in order to obtain 1:6 cell dilution. Cells are incubated at 37° C., until ready for the uptake study.
Cells that are 70-80% confluent in the T-flasks are plated 1 day prior to the transfection procedure. The flask with the cell stock is treated with PBS-EDTA and trypsin to detach the cells, and transfection medium is used from this point. Transfection medium consists of Dulbecco's Modified Eagle Medium (DMEM)+NEAA. To each well, 0.5 mL of the cell mixture is added (1.3×10^5 is the desired cell concentration) and the cells are incubated at 37° C. overnight. Twenty four hours before the assay, cells are transfected with PEPT1. Transfection mixture is prepared by mixing 600 μL of serum free transfection medium, 18 μL of FuGene6 (Roche Diagnostics), and 11 μg of the PepT1 DNA. The transfection reagent-DNA complex is incubated for 20 minutes and 24 μL of the reagent-DNA complex is added to each well.
J. Pharm. Exper Ther. 310:437-445). […] Uptake media consists of 140 mM NaCl, 5.4 mM KCl, 1.8 mM CaCl2, 0.8 mM MgSO4, 5 mM Glucose, 25 mM tris(hydroxymethyl)aminomethane buffer (TRIS). The solution is then brought to pH 6.0 using 2-(N-morpholino)ethanesulfonic acid. The incubation volume is 500 μL and is performed at room temperature for 3 minutes. To stop the uptake at the conclusion of the incubation time, the uptake media is aspirated off of the cell monolayer and 500 μL of ice cold PBS added to the well. The cells are washed 3 times with 500 μL of room temperature PBS without Ca^+2 and Mg^+2. The cells are then lysed with 300 μL of 1% Triton X100 H2O solution. […] A no inhibitor control is established and the percent inhibition of each prodrug is calculated with respect to this control.
The incubation and sampling procedures are exactly the same as the PepT1 screen described above. […]

Sprague-Dawley rats [1] = experiment: Reversal of Phencyclidine (PCP)-Induced Hyperlocomotor Activity in Rats; assay type: in vivo; conditions: Rattus norvegicus, p.o., overnight fasted, 4 hours prior to 5 mg/kg PCP
Excerpt: Administration of NMDA receptor antagonists, such as ketamine or phencyclidine (PCP), produces psychotomimetic-like effects in humans that are similar to those symptoms observed in patients with schizophrenia.
Motor activity is monitored by placing individual male, Sprague-Dawley (Harlan, Indianapolis, Ind.) rats in transparent, plastic shoe-box cages of the dimensions 45×25×20 cm, with 1 cm depth of wood chips as bedding, and a metal grill on top of the cage. Motor monitors (Kinder Scientific) consist of a rectangular rack of 12 photobeams arranged in an 8×4 formation, (or a high density grouping of 22 in a 15×7 pattern) at a height of 5 cm, with a second rack (for measuring rearing behaviors) at a height of 15 cm. The shoe box cage is placed inside of these racks, with the racks on a 3 foot high tabletop in an isolated room. A compound of the present invention is dosed (intraperitoneal route (i.p.), non-prodrug) within a range of 0.3-10 mg/kg, 30 minutes prior to a 5 mg/kg challenge dose of phencyclidine (PCP). A compound of the present invention is dosed (oral route, prodrug) within a range of 0.3-30 mg/kg, in overnight fasted rats, 4 hours prior to a 5 mg/kg challenge dose of PCP. On the test day, rats are placed in the test cage and allowed to acclimate for 30 minutes prior to PCP challenge; rats are monitored for an additional 60 minutes following PCP administration.
Data analysis and ED50 calculations are conducted using GraphPad Prism (San Diego, Calif. USA). Power analyses have determined that 8-10 rats per group are needed to have appropriate statistical power for detecting treatment differences (power=0.8). A one-way analysis of variance (ANOVA) with a post-hoc Dunnett's multiple comparison test is conducted on the total 60 minute locomotor activity. ED50 calculations are performed using non-linear regression curve fitting on percent reversal transformed data for each dose.

[2] = 1 h, 10 µM, pH 7.4
Experimental: Frozen human duodenum intestinal homogenates (1:2 tissue:buffer ratio using 100 mM Tris Phosphate buffer, pH 7.4) are obtained from Celsius In Vitro Technologies (Baltimore, Md.) that were both phenylmethylsulphonylfluoride (PMSF) and EDTA free.
Each lot of human duodenum is obtained from a single donor and the intestine is scraped and the sections are frozen separate. All original tissue collections are performed at 4° C. and immediately frozen at −70° C. Human intestinal homogenates are thawed and diluted to a final protein concentration of 0.5 mg/mL in 100 mM PBS buffer, pH 7.4 immediately prior to the incubations.
Incubations are conducted in 96-well plates and all prodrug compounds are run in duplicate on each day. Stock prodrug compound solutions are prepared in water at a concentration of 1 mM. A 200 μL aliquot of 0.5 mg/mL intestinal homogenate and 196 μL of 100 mM PBS buffer are placed in a 96-well plate in a 37° C. water bath. Using a 96-well pipettor, 4 μL of the 1 mM prodrug compound solution is transferred into the homogenate. Immediately after addition of the prodrug compound (time zero) and after 1 hour incubation, 50 μL samples of the incubation mixture are removed using an automated disposable simultaneous 96 well pipettor and added directly to 200 μL of methanol quench solution containing 100 ng/mL of Internal Standard. The samples are then centrifuged at 3500 rpm for 5 minutes at 10° C. The supernatant (200 μL) is transferred to a final 96 well PCR plate and sealed for analysis by LC/MS/MS.
Concentrations of hydrolyzed compounds of the present invention in the incubation mixtures are determined using LC/MS/MS detection on a Sciex API 4000 quadrapole mass spectrometer with Analyst version 1.4.2, TurboIonSpray, positive ionization, and Selected Reaction Monitoring (SRM). A Waters Atlantis® T3 (20×2.1 mm, 5 μM) HPLC column is used at ambient temperature with a flow rate of 1.0 mL/min and a mobile phase gradient from 0.1% mobile phase A to 99% mobile phase A. Mobile phase A is 1000:5 water:heptafluorobuteric acid and mobile phase B is 1:1 methanol:glacial acetic acid.
Concentrations of hydrolyzed compounds of the present invention in the intestinal incubation mixtures are determined from standard curves prepared by replicate two-fold dilution starting at 10 μM in 100 mM PBS pH 7.4 and subsequently quenched with methanol-internal standard solution identical to the samples. Averages and standard deviations are calculated using Microsoft® Office Excel® 2007. Amount of hydrolysis is determined as a molar percentage of compound formed relative to prodrug compound concentration added. […] Final values are then normalized relative to the formation of Internal Compound Drug A.

Sprague-Dawley rats [3] = experiment: Forced Swim Test in rats; assay type: in vivo, rat; conditions: 30 mg/kg
Experimental: (§1) In this assay, mechanisms with purported antidepressant-like activity decrease immobility in a brief inescapable forced swim episode.
The forced-swim test is conducted with both mice (male, NIH-Swiss mice, 20-25 g, Harlan Sprague-Dawley, Indianapolis, Ind.) and rats (male, Sprague-Dawley rats, 250-350 g, Harlan Sprague-Dawley, Indianapolis, Ind.). Mice are placed in clear plastic cylinders (diameter 10 cm; height: 25 cm) filled to 6 cm with 22-25° C. water for six min. The duration of immobility is recorded during the last 4 min of a six-minute trial. Rats are treated similarly, albeit in clear plastic cylinders of larger dimensions (diameter: 18 cm; height: 40 cm) filled with water (22-25° C.) to a depth of 16 cm for 15 min. Additionally, mice receive a single forced swim exposure; rats receive two, 5-min sessions separated by 24 hours (data is recorded only on Day 2). The compound of Example 1 is tested in mice using intraperitoneal dosing (1, 3, or 10 mg/kg), 60 min prior to testing. […] Example 2 is administered 5 min following the first forced swim exposure and 120 min prior to the test session on Day 2. Imipramine is used as a positive control for these studies. Compounds are formulated in a water vehicle, with minimal NaOH being added to Example 1 and Example 2. Compounds are in a clear solution. The amount of time spent immobile (defined as movements only necessary to keep the subject's head above water) is the dependent measure and recorded by an observer blinded to the drug treatment of the subjects. Data are analyzed by post-hoc Dunnett's test with alpha level set at 0.05. The mouse version of the forced swim test is most commonly used. An ED60 value (60% of the amount of immobility relative to vehicle controls) is calculated to estimate potency of the test compounds.

NIH-Swiss mice = experiment: Forced Swim Test in mice; assay type: in vivo, mouse; conditions: positive control over multiple studies
Experimental: as §1
The forced-swim test is conducted with both mice (male, NIH-Swiss mice, 20-25 g, Harlan Sprague-Dawley, Indianapolis, Ind.) and rats (male, Sprague-Dawley rats, 250-350 g, Harlan Sprague-Dawley, Indianapolis, Ind.). Mice are placed in clear plastic cylinders (diameter 10 cm; height: 25 cm) filled to 6 cm with 22-25° C. water for six min. The duration of immobility is recorded during the last 4 min of a six-minute trial. Rats are treated similarly, albeit in clear plastic cylinders of larger dimensions (diameter: 18 cm; height: 40 cm) filled with water (22-25° C.) to a depth of 16 cm for 15 min. Additionally, mice receive a single forced swim exposure; rats receive two, 5-min sessions separated by 24 hours (data is recorded only on Day 2). […] Imipramine is used as a positive control for these studies. […] Compounds are in a clear solution. The amount of time spent immobile (defined as movements only necessary to keep the subject's head above water) is the dependent measure and recorded by an observer blinded to the drug treatment of the subjects. Data are analyzed by post-hoc Dunnett's test with alpha level set at 0.05. The mouse version of the forced swim test is most commonly used.

Row | SMILES | inhibition at 5000 µM (hPepT1) [%] | human intestinal hydrolysis relative to Internal Prodrug Compound A [2] [%] | other results
1 | CSCC[C@H](N)C(=O)N[C@@]1(C(=O)O)C[C@@H](Sc2nnc[nH]2)[C@H]2[C@H](C(=O)O)[C@H]21.Cl [Example 3, (1R,2S,4R,5R,6R)-2-[[(2S)-2-Amino-4-methylsulfanyl-butanoyl]amino]-4-(4H-1,2,4-triazol-3-ylsulfanyl)bicyclo[3.1.0]hexane-2,6-dicarboxylic acid hydrochloride] | 51 | 53 | IC50 (hPepT1; 0.0625 to 25 mM, PepT1 transfected HeLa cells, read-out: hPepT1 [3H]Gly-Sar uptake inhibition IC50): 5.36 mM; ED50 (Sprague-Dawley rats [1]): 5.46 mg/kg
2 | CC(C)C[C@H](N)C(=O)N[C@@]1(C(=O)O)C[C@@H](Sc2nnc[nH]2)[C@H]2[C@H](C(=O)O)[C@H]21.Cl [Example 4, (1R,2S,4R,5R,6R)-2-[[(2S)-2-Amino-4-methyl-pentanoyl]amino]-4-(4H-1,2,4-triazol-3-ylsulfanyl)bicyclo[3.1.0]hexane-2,6-dicarboxylic acid hydrochloride] | 32 | 45 | –
3 | Cl.NCC(=O)N[C@@]1(C(=O)O)C[C@@H](Sc2nnc[nH]2)[C@H]2[C@H](C(=O)O)[C@H]21 [Example 5, (1R,2S,4R,5R,6R)-2-[(2-Aminoacetyl)amino]-4-(4H-1,2,4-triazol-3-ylsulfanyl)bicyclo[3.1.0]hexane-2,6-dicarboxylic acid hydrochloride] | 44 | 35 | –
4 | N[C@@]1(C(=O)OCc2ccccc2)C[C@@H](Sc2nnc[nH]2)[C@H]2[C@H](C(=O)OCc3ccccc3)[C@H]21 [Example 6, Dibenzyl (1R,2S,4R,5R,6R)-2-amino-4-(4H-1,2,4-triazol-3-ylsulfanyl)bicyclo[3.1.0]hexane-2,6-dicarboxylate] | – | 2 | –
5 | CN(C)CCCN1c2ccccc2CCc2ccccc21 [imipramine, reference compound] | – | – | immobility as % of vehicle controls (Sprague-Dawley rats [3]): 70%; ED60 (NIH-Swiss mice): 8.6 ± 1.2 mg/kg; effect, % of vehicle immobility levels (NIH-Swiss mice): 39±1.2%
